These compounds were tested against CB1 (CNR1) (Homo sapiens, UniProt P21554) (assay: cAMP CNR1 Hunter cell line antagonist assay (CB1 assay)). Conditions: antagonist mode, cAMP CNR1 Hunter cells, EC80 agonist; read-out: CB1 assay, Efficacy (IC50).
Type: cell-based
How it was run: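 Antagonist mode in CNR1 Hunter cells: compound preincubated 30 min at 37 °C, then EC80 agonist for 30 min at 37 °C. cAMP measured by enzyme-fragment complementation chemiluminescence after lysis (1 h) and detection (3 h, room temperature); IC50 fitted from the dose response.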

Sequence of CB1 (CNR1) (P21554 whole entry): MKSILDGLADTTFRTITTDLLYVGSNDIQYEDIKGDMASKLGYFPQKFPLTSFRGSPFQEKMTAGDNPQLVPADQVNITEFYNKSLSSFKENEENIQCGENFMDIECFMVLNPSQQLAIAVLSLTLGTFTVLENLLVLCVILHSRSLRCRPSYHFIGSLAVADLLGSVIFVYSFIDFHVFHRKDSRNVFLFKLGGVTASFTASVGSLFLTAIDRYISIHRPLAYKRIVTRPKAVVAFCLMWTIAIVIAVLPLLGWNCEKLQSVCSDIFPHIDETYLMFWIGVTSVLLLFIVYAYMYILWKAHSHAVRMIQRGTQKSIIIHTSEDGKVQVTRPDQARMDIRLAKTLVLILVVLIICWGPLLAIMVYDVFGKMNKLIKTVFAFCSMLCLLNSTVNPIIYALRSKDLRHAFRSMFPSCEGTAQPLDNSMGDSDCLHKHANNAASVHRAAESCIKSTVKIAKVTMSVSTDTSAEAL

Structure (SMILES) | IC50
Cc1ccc(NS(=O)(=O)c2cc3c(cc2Cl)NC(=O)C(C)O3)cc1 (stereo not shown) [BC19717] | ≥ 25 µM
Cc1ccc(NS(=O)(=O)c2cc(Cl)cc3c2OC(C)C(=O)N3)cc1 (stereo not shown) [BC19718] | ≥ 25 µM
CC1Oc2cc(S(=O)(=O)Nc3ccc(F)cc3Cl)c(Cl)cc2NC1=O (stereo not shown) [BC19719] | 1 to 25 µM
CC1Oc2c(cc(Cl)cc2S(=O)(=O)Nc2ccc(F)cc2Cl)NC1=O (stereo not shown) [BC19720] | ≥ 25 µM
CC1Oc2cc(S(=O)(=O)Nc3ccc(F)cc3)c(Cl)cc2NC1=O (stereo not shown) [BC19721] | < 1 µM
CC1Oc2c(cc(Cl)cc2S(=O)(=O)Nc2ccc(F)cc2)NC1=O (stereo not shown) [BC19722] | 1 to 25 µM
CC1Oc2cc(S(=O)(=O)Nc3ccc(C#N)cc3)c(Cl)cc2NC1=O (stereo not shown) [BC19729] | < 1 µM
CC1Oc2c(cc(Cl)cc2S(=O)(=O)Nc2ccc(C#N)cc2)NC1=O (stereo not shown) [BC19730] | 1 to 25 µM
CCC1Oc2cc(S(=O)(=O)Nc3ccc(F)cc3)c(Cl)cc2NC1=O (stereo not shown) [BC19731] | 1 to 25 µM
CCC1Oc2c(cc(Cl)cc2S(=O)(=O)Nc2ccc(F)cc2)NC1=O (stereo not shown) [BC19732] | 1 to 25 µM
CCC1Oc2cc(S(=O)(=O)Nc3ccc(OC(F)(F)F)cc3)c(Cl)cc2NC1=O (stereo not shown) [BC19733] | 1 to 25 µM
CCC1Oc2c(cc(Cl)cc2S(=O)(=O)Nc2ccc(OC(F)(F)F)cc2)NC1=O (stereo not shown) [BC19734] | 1 to 25 µM
CCC1Oc2cc(S(=O)(=O)Nc3ccc(F)c(F)c3)c(Cl)cc2NC1=O (stereo not shown) [BC19735] | ≥ 25 µM
CCC1Oc2c(cc(Cl)cc2S(=O)(=O)Nc2ccc(F)c(F)c2)NC1=O (stereo not shown) [BC19736] | ≥ 25 µM
CCC1Oc2cc(S(=O)(=O)Nc3ccccc3)c(Cl)cc2NC1=O (stereo not shown) [BC19737] | 1 to 25 µM
CCC1Oc2c(cc(Cl)cc2S(=O)(=O)Nc2ccccc2)NC1=O (stereo not shown) [BC19738] | < 1 µM
CCC1Oc2cc(S(=O)(=O)Nc3ccc(Cl)cc3)c(Cl)cc2NC1=O (stereo not shown) [BC19739] | 1 to 25 µM
CCC1Oc2c(cc(Cl)cc2S(=O)(=O)Nc2ccc(Cl)cc2)NC1=O (stereo not shown) [BC19740] | 1 to 25 µM
CCc1ccc(NS(=O)(=O)c2cc3c(cc2Cl)NC(=O)C(CC)O3)cc1 (stereo not shown) [BC19741] | 1 to 25 µM
CCc1ccc(NS(=O)(=O)c2cc(Cl)cc3c2OC(CC)C(=O)N3)cc1 (stereo not shown) [BC19742] | 1 to 25 µM
CCC1Oc2cc(S(=O)(=O)Nc3ccc(OC)c(Cl)c3)c(Cl)cc2NC1=O (stereo not shown) [BC19743] | ≥ 25 µM
CCC1Oc2c(cc(Cl)cc2S(=O)(=O)Nc2ccc(OC)c(Cl)c2)NC1=O (stereo not shown) [BC19744] | ≥ 25 µM
CCC1Oc2cc(S(=O)(=O)Nc3ccc(C)c(Cl)c3)c(Cl)cc2NC1=O (stereo not shown) [BC19745] | 1 to 25 µM
CCC1Oc2c(cc(Cl)cc2S(=O)(=O)Nc2ccc(C)c(Cl)c2)NC1=O (stereo not shown) [BC19746] | 1 to 25 µM
CCC1Oc2cc(S(=O)(=O)Nc3ccc(F)cc3F)c(Cl)cc2NC1=O (stereo not shown) [BC19747] | 1 to 25 µM
CCC1Oc2c(cc(Cl)cc2S(=O)(=O)Nc2ccc(F)cc2F)NC1=O (stereo not shown) [BC19748] | ≥ 25 µM
CCc1cccc(NS(=O)(=O)c2cc3c(cc2Cl)NC(=O)C(CC)O3)c1 (stereo not shown) [BC19749] | 1 to 25 µM

Structure (SMILES) | IC50
CCc1cccc(NS(=O)(=O)c2cc(Cl)cc3c2OC(CC)C(=O)N3)c1 (stereo not shown) [BC19750] | ≥ 25 µM
CCC1Oc2cc(S(=O)(=O)Nc3cccc(Cl)c3)c(Cl)cc2NC1=O (stereo not shown) [BC19751] | < 1 µM
CCC1Oc2c(cc(Cl)cc2S(=O)(=O)Nc2cccc(Cl)c2)NC1=O (stereo not shown) [BC19752] | 1 to 25 µM
CCC1Oc2cc(S(=O)(=O)Nc3ccc(C)cc3)c(Cl)cc2NC1=O (stereo not shown) [BC19753] | 1 to 25 µM
CCC1Oc2c(cc(Cl)cc2S(=O)(=O)Nc2ccc(C)cc2)NC1=O (stereo not shown) [BC19754] | 1 to 25 µM
CCC1Oc2cc(S(=O)(=O)Nc3ccc(F)cc3Cl)c(Cl)cc2NC1=O (stereo not shown) [BC19755] | 1 to 25 µM
CCC1Oc2c(cc(Cl)cc2S(=O)(=O)Nc2ccc(F)cc2Cl)NC1=O (stereo not shown) [BC19756] | 1 to 25 µM
CC(C)CC1Oc2c(cc(Br)cc2S(=O)(=O)Nc2ccc(OC(F)(F)F)cc2)NC1=O (stereo not shown) [BC19757] | ≥ 25 µM
CC(C)CC1Oc2cc(S(=O)(=O)Nc3ccc(OC(F)(F)F)cc3)c(Br)cc2NC1=O (stereo not shown) [BC19758] | ≥ 25 µM
CC(C)CC1Oc2c(cc(Br)cc2S(=O)(=O)Nc2ccc(F)c(F)c2)NC1=O (stereo not shown) [BC19759] | 1 to 25 µM
CC(C)CC1Oc2cc(S(=O)(=O)Nc3ccc(F)c(F)c3)c(Br)cc2NC1=O (stereo not shown) [BC19760] | 1 to 25 µM
CC(C)CC1Oc2c(cc(Br)cc2S(=O)(=O)Nc2ccccc2)NC1=O (stereo not shown) [BC19761] | 1 to 25 µM
CC(C)CC1Oc2cc(S(=O)(=O)Nc3ccccc3)c(Br)cc2NC1=O (stereo not shown) [BC19762] | ≥ 25 µM
CCc1ccc(NS(=O)(=O)c2cc(Br)cc3c2OC(CC(C)C)C(=O)N3)cc1 (stereo not shown) [BC19763] | 1 to 25 µM
CCc1ccc(NS(=O)(=O)c2cc3c(cc2Br)NC(=O)C(CC(C)C)O3)cc1 (stereo not shown) [BC19764] | 1 to 25 µM
CC(C)CC1Oc2c(cc(Br)cc2S(=O)(=O)Nc2ccc(C(C)C)cc2)NC1=O (stereo not shown) [BC19765] | ≥ 25 µM
CC(C)CC1Oc2cc(S(=O)(=O)Nc3ccc(C(C)C)cc3)c(Br)cc2NC1=O (stereo not shown) [BC19766] | ≥ 25 µM
Cc1ccc(NS(=O)(=O)c2cc(Br)cc3c2OC(CC(C)C)C(=O)N3)cc1Cl (stereo not shown) [BC19767] | 1 to 25 µM
Cc1ccc(NS(=O)(=O)c2cc3c(cc2Br)NC(=O)C(CC(C)C)O3)cc1Cl (stereo not shown) [BC19768] | 1 to 25 µM
CC(C)CC1Oc2c(cc(Br)cc2S(=O)(=O)Nc2ccc(F)cc2F)NC1=O (stereo not shown) [BC19769] | 1 to 25 µM
CC(C)CC1Oc2cc(S(=O)(=O)Nc3ccc(F)cc3F)c(Br)cc2NC1=O (stereo not shown) [BC19770] | ≥ 25 µM
CCc1cccc(NS(=O)(=O)c2cc(Br)cc3c2OC(CC(C)C)C(=O)N3)c1 (stereo not shown) [BC19771] | 1 to 25 µM
CCc1cccc(NS(=O)(=O)c2cc3c(cc2Br)NC(=O)C(CC(C)C)O3)c1 (stereo not shown) [BC19772] | 1 to 25 µM
CC(C)CC1Oc2c(cc(Br)cc2S(=O)(=O)Nc2cccc(F)c2)NC1=O (stereo not shown) [BC19773] | 1 to 25 µM
CC(C)CC1Oc2cc(S(=O)(=O)Nc3cccc(F)c3)c(Br)cc2NC1=O (stereo not shown) [BC19774] | ≥ 25 µM
CC(C)CC1Oc2c(cc(Br)cc2S(=O)(=O)Nc2cccc(Cl)c2)NC1=O (stereo not shown) [BC19775] | ≥ 25 µM
CC(C)CC1Oc2cc(S(=O)(=O)Nc3cccc(Cl)c3)c(Br)cc2NC1=O (stereo not shown) [BC19776] | ≥ 25 µM

Structure (SMILES) | IC50
CC(C)CC1Oc2c(cc(Br)cc2S(=O)(=O)Nc2ccc(F)cc2Cl)NC1=O (stereo not shown) [BC19777] | ≥ 25 µM
CC(C)CC1Oc2cc(S(=O)(=O)Nc3ccc(F)cc3Cl)c(Br)cc2NC1=O (stereo not shown) [BC19778] | ≥ 25 µM
COc1ccc(NS(=O)(=O)c2cc(Br)cc3c2OC(CC(C)C)C(=O)N3)cc1Cl (stereo not shown) [BC19779] | ≥ 25 µM
COc1ccc(NS(=O)(=O)c2cc3c(cc2Br)NC(=O)C(CC(C)C)O3)cc1Cl (stereo not shown) [BC19780] | 1 to 25 µM
CC(C)CC1Oc2c(cc(Br)cc2S(=O)(=O)Nc2ccc(F)cc2)NC1=O (stereo not shown) [BC19781] | 1 to 25 µM
CC(C)CC1Oc2cc(S(=O)(=O)Nc3ccc(F)cc3)c(Br)cc2NC1=O (stereo not shown) [BC19782] | ≥ 25 µM
CC1Oc2c(cc(Br)cc2S(=O)(=O)Nc2ccc(OC(F)(F)F)cc2)N(C)C1=O (stereo not shown) [BC19783] | 1 to 25 µM
CC1Oc2cc(S(=O)(=O)Nc3ccc(OC(F)(F)F)cc3)c(Br)cc2N(C)C1=O (stereo not shown) [BC19784] | ≥ 25 µM
Cc1ccc(NS(=O)(=O)c2cc(Br)cc3c2OC(C)C(=O)N3C)cc1F (stereo not shown) [BC19785] | ≥ 25 µM
Cc1ccc(NS(=O)(=O)c2cc3c(cc2Br)N(C)C(=O)C(C)O3)cc1F (stereo not shown) [BC19786] | ≥ 25 µM
CC1Oc2c(cc(Br)cc2S(=O)(=O)Nc2ccc(F)c(F)c2)N(C)C1=O (stereo not shown) [BC19787] | ≥ 25 µM
CC1Oc2cc(S(=O)(=O)Nc3ccc(F)c(F)c3)c(Br)cc2N(C)C1=O (stereo not shown) [BC19788] | 1 to 25 µM
CC1Oc2c(cc(Br)cc2S(=O)(=O)Nc2ccccc2)N(C)C1=O (stereo not shown) [BC19789] | ≥ 25 µM
CC1Oc2cc(S(=O)(=O)Nc3ccccc3)c(Br)cc2N(C)C1=O (stereo not shown) [BC19790] | 1 to 25 µM
CC1Oc2c(cc(Br)cc2S(=O)(=O)Nc2ccc(Cl)cc2)N(C)C1=O (stereo not shown) [BC19791] | ≥ 25 µM
CC1Oc2cc(S(=O)(=O)Nc3ccc(Cl)cc3)c(Br)cc2N(C)C1=O (stereo not shown) [BC19792] | ≥ 25 µM
CC1Oc2c(cc(Br)cc2S(=O)(=O)Nc2ccc(C(C)C)cc2)N(C)C1=O (stereo not shown) [BC19793] | ≥ 25 µM
CC1Oc2cc(S(=O)(=O)Nc3ccc(C(C)C)cc3)c(Br)cc2N(C)C1=O (stereo not shown) [BC19794] | ≥ 25 µM
COc1ccc(NS(=O)(=O)c2cc3c(cc2Br)N(C)C(=O)C(C)O3)cc1 (stereo not shown) [BC19795] | ≥ 25 µM
Cc1ccc(NS(=O)(=O)c2cc(Br)cc3c2OC(C)C(=O)N3C)cc1Cl (stereo not shown) [BC19796] | 1 to 25 µM
Cc1ccc(NS(=O)(=O)c2cc3c(cc2Br)N(C)C(=O)C(C)O3)cc1Cl (stereo not shown) [BC19797] | ≥ 25 µM
CC1Oc2c(cc(Br)cc2S(=O)(=O)Nc2ccc(F)cc2F)N(C)C1=O (stereo not shown) [BC19798] | ≥ 25 µM
CC1Oc2cc(S(=O)(=O)Nc3ccc(F)cc3F)c(Br)cc2N(C)C1=O (stereo not shown) [BC19799] | ≥ 25 µM
CCc1cccc(NS(=O)(=O)c2cc(Br)cc3c2OC(C)C(=O)N3C)c1 (stereo not shown) [BC19900] | ≥ 25 µM
CCc1cccc(NS(=O)(=O)c2cc3c(cc2Br)N(C)C(=O)C(C)O3)c1 (stereo not shown) [BC19901] | ≥ 25 µM

From patent US20240000806A1, “METHODS AND MATERIALS FOR INHIBITING CB1 ACTIVITY” (University of Pittsburgh - Of the Commonwealth System of …, priority 2020, published 2024)
